How the values were obtained:
Format in all cases: cell-based
[1] = system: Cronobacter muytjensii; assay: Reduction of azo substrates over 24 hours at 35° C., microtitration plate (Example 1); parameters: key to RED (substrate reduced or not): RED indicates whether the substrate is reduced (Y) or not (N); RED indicates whether the substrate is reduced (Y) or not (N); key to Co (growth, absorbance at 660 nm) / Decol (substrate decolourized, decrease in absorbance) / Fluo (fluorescence multiplied by 2 relative to substrate-free control): The symbol “+” means good growth/decolourization/significant increase in fluorescence; The symbol “+/−” means difficult growth; The symbol “−” means that there is no growth/decolourization/significant increase in fluorescence; settings: E. muytjensii, substrate 35 mg/l
Outline: (§1)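 Readout: A660 for growth; substrate-specific absorbance/fluorescence for azo reduction. Trypcase soya broth, 35 mg/l substrate, 0.5 McFarland inoculum, 35° C., 24 h. Reduced = decolourization and/or fluorescence ≥2× substrate-free control.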

[2] = system: Acinetobacter baumanii; assay: as above; parameters: key to RED (substrate reduced or not): RED indicates whether the substrate is reduced (Y) or not (N); RED indicates whether the substrate is reduced (Y) or not (N); key to Decol (substrate decolourized, decrease in absorbance) / Fluo (fluorescence multiplied by 2 relative to substrate-free control) / Co (growth, absorbance at 660 nm): The symbol “+” means good growth/decolourization/significant increase in fluorescence; The symbol “+/−” means difficult growth; The symbol “−” means that there is no growth/decolourization/significant increase in fluorescence; settings: A. baumannii, substrate 35 mg/l
Outline: as §1

[3] = system: Enterococcus faecalis; assay: as above; parameters: key to RED (substrate reduced or not): RED indicates whether the substrate is reduced (Y) or not (N); RED indicates whether the substrate is reduced (Y) or not (N); key to Decol (substrate decolourized, decrease in absorbance) / Fluo (fluorescence multiplied by 2 relative to substrate-free control) / Co (growth, absorbance at 660 nm): The symbol “+” means good growth/decolourization/significant increase in fluorescence; The symbol “+/−” means difficult growth; The symbol “−” means that there is no growth/decolourization/significant increase in fluorescence; settings: E. faecalis, substrate 35 mg/l
Outline: as §1

[4] = system: 10 strains representing 10 species of microorganisms; assay: Reduction of azo substrates, whole panel of Example 1; settings: substrate 35 mg/l, 35° C., 24 hours
Experimental: Reduction of the “azo” function of the substrates listed in Table I by the species listed in Table II, each species being represented by a strain, is tested in a microtitration plate.
The reaction medium consists of: • Trypcase soya broth • Substrate 35 mg/l • 0.5 MacFarland inoculum
The reduction of the substrate and the growth of the microorganisms are monitored using an Infinite® M200 Tecan microplate reader at 35° C. over 24 hours.
The growth is monitored by the absorbance at 660 nm and the reduction of the substrates by absorbance and fluorescence at the specific wavelengths indicated in Table III.
The substrate is considered as reduced by the microorganisms when the substrate is decolourized (monitored by the decrease in absorbance) (Decol) and/or when the fluorescence of the substrate is multiplied by 2 relative to the base fluorescence of a substrate-free control (Fluo). The growth is indicated by Co. The symbol “+” means good growth/decolourization/significant increase in fluorescence. The symbol “+/−” means difficult growth. The symbol “−” means that there is no growth/decolourization/significant increase in fluorescence. RED indicates whether the substrate is reduced (Y) or not (N).

[5] = system: Citrobacter koseri; assay: Reduction of 3 azo substrates over 24 hours at 35° C. (Example 2); parameters: key: The strains that reduce the substrate are marked with a “+”; the strains that do not reduce the substrate are marked with a “−”; settings: substrate 35 mg/l
Experimental: (§2) The reduction of the “azo” function of the substrates listed in Table V by the 25 species listed in Table VI, each being represented by one or two strains, is tested in a microtitration plate. The reaction medium consists of: • Trypcase soya broth • Substrate 35 mg/l • 0.5 MacFarland inoculum The reduction of the substrate and the growth of the microorganisms are monitored using an Infinite® M200 Tecan microplate reader at 35° C. over 24 hours. The growth is monitored by the absorbance at 660 nm, and the reduction of the substrates by absorbance and fluorescence at the wavelengths indicated in Table III above. The substrate is considered as reduced by the microorganisms when the fluorescence is multiplied by 2 relative to the base fluorescence of the reaction medium.

[6] = system: Saccharomyces cerevisiae; assay: as above; parameters: key: The strains that reduce the substrate are marked with a “+”; the strains that do not reduce the substrate are marked with a “−”; settings: substrate 35 mg/l
Experimental: as §2

[7] = system: Staphylococcus haemolyticus; assay: as above; parameters: key: The strains that reduce the substrate are marked with a “+”; the strains that do not reduce the substrate are marked with a “−”; settings: substrate 35 mg/l
Experimental: as §2

[8] = system: Staphylococcus hominis; assay: as above; parameters: key: The strains that reduce the substrate are marked with a “+”; the strains that do not reduce the substrate are marked with a “−”; settings: substrate 35 mg/l
Experimental: as §2

[9] = system: Streptococcus pyogenes; assay: as above; parameters: key: The strains that reduce the substrate are marked with a “+”; the strains that do not reduce the substrate are marked with a “−”; settings: substrate 35 mg/l
Experimental: as §2

[10] = system: 45 strains representing 25 species of microorganisms; assay: Reduction of 3 azo substrates, whole panel of Example 2; settings: substrate 35 mg/l, 35° C., 24 hours
Experimental: as §2

Row | SMILES | Co (growth, absorbance at 660 nm) [1] | Decol (substrate decolourized, decrease in absorbance) [1] | Fluo (fluorescence multiplied by 2 relative to substrate-free control) [1] | RED (substrate reduced or not) [1] | Co (growth, absorbance at 660 nm) [2] | Decol (substrate decolourized, decrease in absorbance) [2] | Fluo (fluorescence multiplied by 2 relative to substrate-free control) [2] | RED (substrate reduced or not) [2] | Co (growth, absorbance at 660 nm) [3] | Decol (substrate decolourized, decrease in absorbance) [3] | Fluo (fluorescence multiplied by 2 relative to substrate-free control) [3] | RED (substrate reduced or not) [3] | reduction by the microorganisms tested (Table IV) [4] | reduction of the substrate by the strain (fluorescence multiplied by 2) [5] | reduction of the substrate by the strain (fluorescence multiplied by 2) [6] | reduction of the substrate by the strain (fluorescence multiplied by 2) [7] | reduction of the substrate by the strain (fluorescence multiplied by 2) [8] | reduction of the substrate by the strain (fluorescence multiplied by 2) [9] | reduction by the species tested (Table VII) [10]
1 | O=C(O)c1cc(/N=N/c2ccc(-c3nc4ccccc4s3)cc2)ccc1O [BF45, 2-Phenyl-benzothiazole-4′-azo-4″- hydroxybenzene-3″-carboxylic acid] | + | − | − | N | + | − | + | Y | + | + | + | Y |  |  |  |  |  |  | 
2 | CN(C)c1ccc(N=Nc2ccc(S(=O)(=O)[O-])cc2)cc1.[Na+] [Methyl orange] | + | − | − | N | + | − | − | N | + | + | + | Y | reduced only by E. faecalis |  |  |  |  |  | 
3 | CN(C)c1ccc(/N=N/c2ccccc2C(=O)O)cc1 [Methyl red] | + | + | + | Y | + | + | + | Y | + | + | + | Y | can be reduced by all the microorganisms tested |  |  |  |  |  | 
4 | O=S(=O)([O-])c1ccc(N=Nc2c(O)ccc3ccccc23)cc1.[Na+] [Orange II] | + | − | − | N | + | − | − | N | + | + | + | Y |  | − | − | − | − | − | reduced mainly by E. faecalis
5 | O=C([O-])C1=NN(c2ccc(S(=O)(=O)[O-])cc2)C(=O)C1/N=N/c1ccc(S(=O)(=O)[O-])cc1.[Na+].[Na+].[Na+] (centres unmarked) [Tartrazine] | + | − | − | N | + | − | − | N | + | + | +/− | Y |  | − | − | − | − | − | reduced mainly by E. faecalis
